Data reported in patent US12221447B2, “Methods and compositions for drugs to treat ophthalmic diseases” (Duke University, priority 2018, dated 2025).

What was measured:
[1] = target: T1, CaMKK2 auto-phosphorylation (Homo sapiens, UniProt Q96RR4); assay: HEK293 cells, ionomycin stimulation, Western blot for phospho-CaMKK2; assay type: cell-based; details: 10 μM; for inhibition of CaMKK2 auto-phosphorylation (densitometry): 2 hours pre-treatment, ionomycin 0.5 μg/mL 15 minutes; for inhibition of CaMKK2 auto-phosphorylation compared to STO-609: versus STO-609 10 μM
T1 construct: endogenous in cells; host or cells: HEK293
T1 sequence (Q96RR4 whole entry): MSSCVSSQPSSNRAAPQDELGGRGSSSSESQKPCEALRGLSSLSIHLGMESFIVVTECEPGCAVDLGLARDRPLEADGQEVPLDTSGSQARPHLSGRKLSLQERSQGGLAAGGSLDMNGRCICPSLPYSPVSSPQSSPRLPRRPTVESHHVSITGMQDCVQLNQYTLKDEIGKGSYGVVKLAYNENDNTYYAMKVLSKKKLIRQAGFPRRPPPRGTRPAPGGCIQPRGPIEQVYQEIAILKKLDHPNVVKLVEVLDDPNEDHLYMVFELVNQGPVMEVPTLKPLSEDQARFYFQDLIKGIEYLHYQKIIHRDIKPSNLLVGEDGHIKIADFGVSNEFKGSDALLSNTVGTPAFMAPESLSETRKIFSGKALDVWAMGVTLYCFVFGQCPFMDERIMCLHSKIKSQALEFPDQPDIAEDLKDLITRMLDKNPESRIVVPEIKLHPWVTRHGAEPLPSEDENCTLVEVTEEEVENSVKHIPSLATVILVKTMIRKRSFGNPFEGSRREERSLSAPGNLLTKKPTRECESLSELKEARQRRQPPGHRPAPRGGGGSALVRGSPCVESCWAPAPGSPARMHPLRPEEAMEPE
Description: (§1) Preliminary screening of Compounds EY301-EY305 was performed in vitro in HEK293 cells (all tested at 10 μM). In brief, HEK293 cells were cultured to sub confluence in […] complete media and 1% fetal bovine serum (FBS), incubated at 37° C. in 5% CO2. Cultured cells were then switched to serum-free media overnight prior to initiation of experiments. […] Cells were then stimulated with the calcium ionophore ionomycin (0.5 μg/mL) for 15 minutes, following which the cells were washed, harvested, and lysed for recovery of total protein using standard methods. Following standard protein gel electrophoresis, Western blot was then performed for either phospho-CaMKK2 (FIG. 4A) or phospho-AMPK (FIG. 4B) for each condition. Studies were performed in triplicate.

AMPK phosphorylation = assay: HEK293 cells, ionomycin stimulation, Western blot for phospho-AMPK; assay type: cell-based; details: 10 μM; for inhibition of phospho-AMPK (densitometry): 2 hours pre-treatment, ionomycin 0.5 μg/mL 15 minutes; for inhibition of phospho-AMPK compared to STO-609: versus STO-609 10 μM
Description: as §1

wild-type BALB/c mice = assay: NonGLP toxicology, in vivo tolerability of topically administered SMICs; details: topical 1.5 mg/mL twice daily for 14 days
Description: NonGLP toxicology studies of locally administered candidate SMICs EY1006.A001.B001 and EY1001.A002.B001 was assessed in 2-3-month old wild-type BALB/c mice. assessing local toxicity by clinical assessment and by histopathology. Both compounds were topically administered at 1.5 mg/mL twice daily for 14 days.

OGVHD mouse model = assay: Mouse model of OGVHD, proof-of-concept with topical lead SMICs (Example 11); assay type: in vivo, mice; details: for prevention of signs of OGVHD versus vehicle and prednisolone: 1.5 mg/mL topical daily for two weeks, p<0.05 vs vehicle or prednisolone
Description: Preclinical proof-of-concept studies in a mouse model of OGVHD were performed to assess the clinical efficacy of topical administration of the two most promising candidate SMICs identified in Examples 6 and 7, EY1006.A001.B001 and EY1001.A002.B001. […] Briefly, the OGVHD mouse model was initiated by isolation of bone marrow and splenic T cells from 2-3-month old mice C57BL/6J donor mice, and transplantation of isolated bone marrow and T cells to recipient 2-3-month old BALB/c mice, following ablation of recipient bone marrow. Recipient BALB/c mice were then allowed to convalesce for approximately 14 days before initiation of further experimental procedures.
OGVHD clinical findings include lid margin edema, lid crusting, tear film disruption, conjunctival chemosis, and keratopathy. These findings were clinically graded following one week and two weeks of treatment using a quantitative scoring system adapted from previously published studies (33, 34). […] By contrast, vehicle control-treated eyes had lid margin swelling and scarring with lash and periocular fur loss, eyelid crusting, chemosis, abnormal tear film, and keratopathy. […] For this scoring system and experiment Mild disease was score 0-5, moderate disease was score 6-10 and severe disease was score >10.

experimental OGVHD = tested on: experimental OGVHD
Excerpt: Ocular graft versus host disease (OGVHD), a disease in which T cells and macrophages are known to play key pathogenic roles, represents a model ocular inflammatory disease since A) it is known to share overlapping pathologic and clinical features with other, more common ocular inflammatory diseases (i.e. aqueous tear deficiency, meibomian gland dysfunction, uveitic disease, others); and B) the at-risk population is well defined since it occurs in individuals undergoing allogeneic bone marrow transplant for hematologic malignancies, autoimmune diseases, and other disorders. As such, experimental models of OGVHD represent attractive systems in which to study the therapeutic potential of targeting and inhibiting CaMKK2 for ophthalmic diseases. […] In brief, 2-3-month old mice of C57BL/6 and BALB/c strains are used for this model. C57BL/6 mice are sacrificed, following which RPMI-1640 medium is flushed in the diaphyseal channel of both recovered tibias and femurs. […]
Following BMT+T cell transfer, recipient BALB/c mice were allowed to convalesce for 14 days prior to initiation of experimental procedures. […] At the conclusion of the treatment period, eyes were then graded (in masked fashion) for signs of OGVHD and scored according to a modified clinical grading system (33, 34). […]

[2] = in vivo; cited from earlier work
[3] = with sonication; cited from earlier work
[4] = target: T2, aryl hydrocarbon receptors (Homo sapiens, UniProt P35869); details: suspected off-target effect; cited from earlier work
T2 sequence (P35869 11-848): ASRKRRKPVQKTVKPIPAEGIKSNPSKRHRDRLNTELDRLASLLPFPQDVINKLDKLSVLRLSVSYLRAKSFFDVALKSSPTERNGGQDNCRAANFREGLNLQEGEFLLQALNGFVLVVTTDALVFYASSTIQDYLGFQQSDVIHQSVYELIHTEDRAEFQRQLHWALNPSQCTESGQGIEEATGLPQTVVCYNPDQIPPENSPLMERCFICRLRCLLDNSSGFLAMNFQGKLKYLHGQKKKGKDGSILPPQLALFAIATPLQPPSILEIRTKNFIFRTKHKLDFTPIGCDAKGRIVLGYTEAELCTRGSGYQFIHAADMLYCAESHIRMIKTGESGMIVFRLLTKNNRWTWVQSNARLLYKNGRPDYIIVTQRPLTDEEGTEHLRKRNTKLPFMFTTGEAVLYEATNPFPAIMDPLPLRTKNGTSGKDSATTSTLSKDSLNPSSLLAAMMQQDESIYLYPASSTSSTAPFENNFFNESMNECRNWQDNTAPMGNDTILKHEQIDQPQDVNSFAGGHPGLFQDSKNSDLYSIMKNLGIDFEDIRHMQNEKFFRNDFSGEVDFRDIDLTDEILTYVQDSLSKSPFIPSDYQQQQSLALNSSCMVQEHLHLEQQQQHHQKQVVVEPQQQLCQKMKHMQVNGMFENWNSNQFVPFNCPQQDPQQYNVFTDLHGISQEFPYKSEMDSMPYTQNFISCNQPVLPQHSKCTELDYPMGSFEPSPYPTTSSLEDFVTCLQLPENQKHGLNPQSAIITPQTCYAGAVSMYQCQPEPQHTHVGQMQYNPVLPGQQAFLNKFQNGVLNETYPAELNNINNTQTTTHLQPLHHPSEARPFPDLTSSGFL

SMILES	inhibition of CaMKK2 auto-phosphorylation (densitometry) [1]	inhibition of CaMKK2 auto-phosphorylation compared to STO-609 [1]	inhibition of phospho-AMPK (densitometry) (AMPK phosphorylation)	inhibition of phospho-AMPK compared to STO-609 (AMPK phosphorylation)	prevention of signs of OGVHD versus vehicle and prednisolone (OGVHD mouse model)	also measured
O=C(O)c1ccc2c(c1)[nH]c(=O)n1c3ccccc3nc21 [Compound 1]	robust inhibition	more effective as compared to STO-609				
Cn1c(=O)n2c3ccccc3nc2c2ccc(C(=O)O)cc21 [Compound 3]	robust inhibition		partial inhibition	comparable to STO-609		
CCn1c(=O)n2c3ccccc3nc2c2ccc(C(=O)O)cc21 [Compound 4]	robust inhibition	more effective as compared to STO-609	partial inhibition	comparable to STO-609		
CC(C)Cn1c(=O)n2c3ccccc3nc2c2ccc(C(=O)O)cc21 [Compound 5]	robust inhibition		partial inhibition	comparable to STO-609		
O=C(O)c1ccc2c(c1)n(CCF)c(=O)n1c3ccccc3nc21 [Compound 7]					superior to vehicle and prednisolone	systemic toxicity (wild-type BALB/c mice): no evidence of failure to thrive or mortality; severity of clinical OGVHD findings (OGVHD mouse model; 1.5 mg/mL topical daily, from day 14 post-BMT for two weeks, n=5): reduced severity of clinical OGVHD findings with efficacy similar to STO-609
O=C(O)c1ccc2c3c1cccc3c(=O)n1c3ccccc3nc21 [STO-609, 7-oxo-7H-benzimidazo[2,1-a]benz[de]isoquinoline-3-carboxylic acid]					superior to vehicle and prednisolone	severity of OGVHD, median score (experimental OGVHD; STO-609 1.5 mg/mL local ocular, daily for 2 weeks from day 14 post-BMT, vehicle median score 17): 5; reduction in OGVHD score (experimental OGVHD; stated as demonstrated and established for STO-609): 50%; oral bioavailability [2]: poor oral bioavailability; maximum concentration in DMSO [3]: 10 mM; off-target effect on aryl hydrocarbon receptors [4]: activation of aryl hydrocarbon receptors
